3 molecules from US8293465B2, “Method for the detection of human immunodeficiency virus envelope (HIV) glycoprotein utilizing carbohydrate binding module (CBM) 20 or 21” (priority 2009, dated 2012) can be followed below.

For assay [1], the target named is T1, AnSBD binding to HIV Ag & Ab positive panel (Aspergillus niger, UniProt P69328).
T1 construct: made in house; host or cells: E. coli (pET15b, printed 'pET15Bb')
The note with it: 10 mM competitor; AnSBD coated plate; FIG. 6B. Here is the method:
(§1) Ten millimolar maltoheptaose (G7 glycan) and β-cyclodextrin (βCD) (Sigma-Aldrich, St. Louis, Mo.) were dissolved in PBS plus 5% BSA and mixed with the same volume of HIV Ag & Ab positive panel at 37° C. for 1 hr. After adding the mixture to RoSBD coated plate (100 nM in 0.05 M Tris-Hcl, pH 8) or AnSBD coated plate (100 nM in 0.05 M sodium bicarbonate buffer, pH 9.5) at 37° C. for 1 hr, 100 μL HRP coupled HIV1 recombinant gp120 antigen conjugate (0.05 μg/mL) was used for detection.
(§2) HIV Ag & Ab positive panel was separately mixed with the same volume of 500 nM human IgG1 secondary antibody, 2G12 monoclonal antibody, and 250 nM HIV1 gp140 antigen at 37° C. for 1 hr. After adding the mixture to (a) RoSBD coated (100 nM in 0.05 M Tris-Hcl, pH 8) and (b) AnSBD coated plate (100 nM in 0.05 M sodium bicarbonate buffer, pH 9.5) individually at 37° C. for 1 hr, 100 μL HRP coupled HIV1 recombinant gp120 antigen conjugate (0.05 μg/mL) was used for detection.

In assay [2] the target is T2, RoSBD binding to HIV Ag & Ab positive panel (Rhizopus oryzae, UniProt P07683).
T2 construct: made in house; host or cells: E. coli (pET23a)
Briefly: Competition of HIV-RoSBD binding, ELISA on RoSBD coated plate. The note with it: 10 mM competitor, FIG. 6A. Here is the method: as §1, §2
For orientation: ELISA stands for enzyme-linked immunosorbent assay.

Assay [3] concerns HIV Ag & Ab positive panel (possibly native HIV gp120 antigen glycoprotein). Briefly: HIV-RoSBD binding analysis, sandwich ELISA on SBD coated plates. On the procedure:
At first 100 μL of 100 nM AnSBD/RoSBD were coated on individual well of a 96-well plate (Greiner-Bio One GmbH, Frickenhausen, Germany) in sodium bicarbonate buffer (pH 9.5)/Tris-HCl buffer (pH 8) via 16-hr incubation at 4° C. The plate was washed with PBST [10 mM Phosphate Buffered Saline (pH 7.0) plus 0.05% Tween-20], then 200 μL blocking buffer [0.01 M Phosphate Buffered Saline (pH 7.0) plus 5% BSA] was added to each well and incubated at 37° C. for 2 hr. The blocking buffer was removed and the plate was dried at 25° C. for 1 hr. […] To test the specificity of the SBD binding to HIV, HCV test sample and HCV recombinant antigen (Core+NS3+NS5)-HRP conjugate (0.33 μg/mL) were analyzed following the same protocol in parallel. Finally, the plates were developed by adding 100 μL 3,3′,5,5′-tetramethylbenzidibe (TMB) at 37° C. for […] The absorbance was measured at 450 nm in ELISA reader after the reaction was stopped by addition of 100 μL 2 N H2SO4 in each well. These absorbance values were compiled as a statistical value (Cut off value; COV) and described in terms of cut off index (COI) value. The COV was calculated as the OD value of negative control (Normal Human Serum) plus 0.1 (COV=NC+0.1). The COI value was calculated as the OD value of test sample divided by COV. […]

Assay [4] can be described thus: Glycan array screening of RoSBD (CFG Core H, version 3.1). Format: binding. The note with it: among 377 glycans; FIG. 1A. Here is the method:
RoSBD was produced in E. coli system using pET23a expression vector and purified using amylose resin as previously described. Glycan microarray analyses were conducted by the Consortium for Functional Glycomics, Core H facility. The array contained a total of 377 different natural and synthetic glycans and version 3.1 was used for the analyses reported here. Briefly, RoSBD was diluted to […] in sodium acetate binding buffer (50 mM sodium acetate pH 5.5, 1% BSA and 0.05% Tween-20). Seventy microliters was applied to the printed surface of the array, coverslipped, and incubated at room temperature in a humidified chamber away from light for 1 hr. After the incubation, the coverslip was removed and rinsed four times in TSM buffer [50 mM Tris-HCI (pH 7.5), 10 mM MgCl2, and 0.5 M sucrose] and four times in TSM buffer. Seventy microliters of Anti-RoSBD monoclonal antibody, diluted to 1:200 in PBS binding buffer, was applied to the printed surface of the microarray and incubated in a humidified chamber for 1 hr. Washes were performed as above. To detect binding, the secondary antibody incubation was performed with Alexa488-labeled goat anti-mouse IgG at […] in PBS buffer for one hour in a humidified chamber, followed by wash steps. The binding image was read in a Perkin-Elmer Microarray XL4000 scanner and analyzed using Imagene (V.6) image analysis software. […]

Consider `OC[C@H]1O[C@@H]2O[C@H]3[C@H](O)[C@@H](O)[C@@H](O[C@H]4[C@H](O)[C@@H](O)[C@@H](O[C@H]5[C@H](O)[C@@H](O)[C@@H](O[C@H]6[C@H](O)[C@@H](O)[C@@H](O[C@H]7[C@H](O)[C@@H](O)[C@@H](O[C@H]8[C@H](O)[C@@H](O)[C@@H](O[C@H]1[C@H](O)[C@H]2O)O[C@@H]8CO)O[C@@H]7CO)O[C@@H]6CO)O[C@@H]5CO)O[C@@H]4CO)O[C@@H]3CO` [β-cyclodextrin], for which the competitive inhibition rate in assay [1] worked out at 14.3%; in assay [2], 23.1%.
In the same order, the values of maltoheptaose are 45.9% and 24.4%.

B1: RoSBD: starch binding domain, CBM family 21, derived from Rhizopus oryzae glucoamylase, produced in E. coli (protein)
chain: ASIPSSASVQLDSYNYDGSTFSGKIYVKNIAYSKKVTVIYADGSDNWNNNGNTIAASYSAPISGSNYEYWTFSASINGIKEFYIKYEVSGKTYYDNNNSANYQVST
B1: the “specificity of binding, HIV panel versus Anti-HCV mixed titer performance panel” value in assay [3] (Anti-HCV panel PHV205-24 in parallel, P<0.0001, FIG. 4B) is listed as “specific”. Also, the “maximal COI value of binding” value in assay [3] (HIV Ag & Ab positive panel #9144532, COI > 1 is positive, FIG. 4A) worked out at 2.298. Moreover, the “glycan recognition (interaction signal on glycan array)” value in assay [4] is recorded as “only Manα(1,2)Manα(1,2)Manα(1,2)Manα(1,3) (No. 187) showed evident interaction signal”.
